Measurements as given in US9808527B2, “Methods and compositions for treating HIV infections” (priority 2006, dated 2017).
Read-outs that look alike come from different tables or passages of the source.

Columns and labels:
[1] = tested on: HIV-1ERS104pre (wild-type: X4); assay: p24 Gag production inhibition, PHA-PBMs, wild-type clinical isolate; assay type: cell-based
Description: (§1) Drug susceptibility assay. The susceptibility of HIV-1LAI, HIV-2EHO, HIV-2ROD, to various drugs and the cytotoxicity of those drugs was determined by using the MTT assay. Briefly, MT-2 cells (2×10^4/mL) were exposed to 100 TCID50s (50% tissue culture infectious doses) of HIV-1LAI, HIV-2EHO, or HIV-2ROD in the presence or absence of various concentrations of drugs in 96-well microculture plates and were incubated at 37° C. for 7 days. After 100 μL of the medium was removed from each well, 3-(4,5-dimethylthiazol-2-yl)-2,5-diphenyltetrazolium bromide (MTT) solution (10 μL, 7.5 mg/mL in phosphate-buffered saline) was added to each well in the plate, followed by incubation at 37° C. for 4 hours. […] All assays were performed in duplicate or triplicate. To determine the sensitivity of HIV-1Ba-L, HIV-1ERS104 pre, and clinical multi-drug-resistant HIV-1 isolates and different subtypes of HIV-1 isolates to drugs, phytohemagglutinin-activated peripheral blood mononuclear cells (PHA-PBMs; 10^6/mL) were exposed to 50 TCID50 (50% tissue infectious dose) of each HIV-1 isolate and cultured in the presence or absence of various concentrations of drugs in 10-fold serial dilutions in 96-well microtiter culture plates. To determine the drug susceptibility of certain laboratory HIV-1 strains (HIV-1NL4-3), MT-4 cells were used as target cells. MT-4 cells (10^5/mL) were exposed to 100 TCID50 of wild type HIV-1NL4-3 and PI-resistant HIV-1NL4-3 in the presence or absence of various concentrations of drugs and were incubated at 37° C. On day 7 of culture, the supernatant was harvested and the amount of p24 Gag protein was determined by using a fully automated chemiluminescent enzyme immunoassay system (Lumipulse F; Fujirebio Inc., Tokyo, Japan) (22). […] All assays were performed in duplicate or triplicate.
(§2) The amino acid substitutions identified in the protease-encoding region of HIV-1ERS104pre, HIV-1TM, HIV-1MM, HIV-1JSL, HIV-1B, HIV-1C, HIV-1G compared to the consensus type B sequence cited from the Los Alamos database include L63P; L10I, K14R, R41K, M46L, I54V, L63P, A71V, V82A, L90M; I93L; L10I, K43T, M46L, I54V, L63P, A71V, V82A, L90M, Q92K; L10I, L24I, I33F, E35D, M36I, N37S, M46L, I54V, R57K, I62V, L63P, A71V, G73S, V82A; L10I, K14R, L33I, M36I, M46I, F53I, K55R, I62V, L63P, A71V, G73S, V82A, L90M, I93L; L10I, I15V, K20R, L24I, M36I, M46L, I54V, I62V, L63P, K70Q, V82A, L89M; and L10I, V11I, T12E, I15V, L19I, R41K, M46L, L63P, A71T, V82A, L90M, respectively. HIV-1ERS104pre served as a source of wild-type HIV-1. The IC50 values were determined by using PHA-PBMs as target cells and the inhibition of p24 Gag protein production by each drug was used as an endpoint. The numbers in parentheses represent the fold changes of IC50 values for each isolate compared to the IC50 values for wild-type HIV-1ERS104pre. All assays were conducted in duplicate or triplicate, and the data shown represent mean values (±1 standard deviations) derived from the results of three independent experiments.

Ba-L (B-R5) = assay: p24 Gag production inhibition, PHA-PBMs, subtype B Ba-L; assay type: cell-based, HIV-1; conditions: Human immunodeficiency virus 1, BAL, read-out: IC50 against Ba-L (B-R5)
Description: as §1
The IC50 values were determined by using PHA-PBMs as target cells and the inhibition of p24 Gag protein production by each drug was used as an endpoint. All assays were conducted in duplicate, and the data shown represent mean values (±1 standard deviations) derived from the results of two or three independent experiments.

HIV-1LAI = assay: MTT assay, MT-2 cells exposed to HIV-1LAI (acute HIV-1 infection assay); assay type: cell-based; conditions: for IC50: Human immunodeficiency virus 1, MT2, 168 h; for Selectivity Index: HIV-1LAI
Description: as §1

HIV-1MDR/JSL (R5) = assay: microbe, parasite or virus in culture; assay type: cell-based; conditions: for IC50: Human immunodeficiency virus 1, read-out: IC50 against HIV-1MDR/JSL (R5); for fold change of IC50, HIV-1MDR/JSL: compared to wild-type HIV-1ERS104pre
Description: as §1
(§3) HIV-1ERS104pre served as a source of wild-type HIV-1. The IC50 values were determined by using PHA-PBMs as target cells and the inhibition of p24 Gag protein production by each drug was used as an endpoint.

HIV-1MDR/MM (R5) = assay: microbe, parasite or virus in culture; assay type: cell-based; conditions: for IC50: Human immunodeficiency virus 1, read-out: IC50 against HIV-1MDR/MM (R5); for fold change of IC50, HIV-1MDR/MM: compared to wild-type HIV-1ERS104pre
Description: as §1, §3

HIV-1MDR/G (X4) = assay: microbe, parasite or virus in culture; assay type: cell-based; conditions: for IC50: Human immunodeficiency virus 1, read-out: IC50 against HIV-1MDR/G (X4); for fold change of IC50, HIV-1MDR/G: compared to wild-type HIV-1ERS104pre
Description: as §1, §3

HIV-1MDR/C (X4) = assay: microbe, parasite or virus in culture; assay type: cell-based; conditions: for IC50: Human immunodeficiency virus 1, read-out: IC50 against HIV-1MDR/C (X4); for fold change of IC50, HIV-1MDR/C: compared to wild-type HIV-1ERS104pre
Description: as §1, §3

HIV-1MDR/B (X4) = assay: microbe, parasite or virus in culture; assay type: cell-based; conditions: for IC50: Human immunodeficiency virus 1, read-out: IC50 against HIV-1MDR/B (X4); for fold change of IC50, HIV-1MDR/B: compared to wild-type HIV-1ERS104pre
Description: as §1, §3

HIV-1MDR/TM (X4) = assay: microbe, parasite or virus in culture; assay type: cell-based; conditions: for IC50: Human immunodeficiency virus 1, read-out: IC50 against HIV-1MDR/TM (X4); for fold change of IC50, HIV-1MDR/TM: compared to wild-type HIV-1ERS104pre
Description: as §1, §3

92UG037 (A-R5) = assay: p24 Gag production inhibition, PHA-PBMs, subtype A isolate 92UG037; assay type: cell-based, HIV-1; conditions: Human immunodeficiency virus 1, read-out: IC50 against 92UG037 (A-R5)
Description: as §1
The IC50 values were determined by using PHA-PBMs as target cells and the inhibition of p24 Gag protein production by each drug was used as an endpoint.

[2] = tested on: multi-drug-resistant clinical HIV-1 variants; assay: p24 assay, PHA-PBMs, panel of multi-drug-resistant clinical HIV-1 isolates; assay type: cell-based; conditions: Human immunodeficiency virus 1, read-out: IC50 against multi-drug-resistant clinical HIV-1 strains, PHA-PBMs, p24 production
Description: as §1, §2

[3] = Human immunodeficiency virus 1, PHA-PBMs, p24 Gag production, read-out: IC50 against HIV-1ERS104pre (wild-type: X4)
[4] = MT-2 cells, 100 TCID50 of HIV-1LAI, MTT assay on day 7, read-out: IC50 against HIV-1LAI
[5] = Human immunodeficiency virus 1, read-out: IC50 against HIV-1ERS104pre (wild-type: X4)
[6] = read-out: IC50 against HIV-1LAI, MT-2 cells, 100 TCID50 of HIV-1LAI, MTT assay on day 7

Row | SMILES | IC50 [1, 3] [nM] | IC50 (Ba-L (B-R5); PHA-PBMs, p24 Gag production) [nM] | IC50 (HIV-1LAI; [4]) [nM] | IC50 (HIV-1MDR/JSL (R5)) [nM] | IC50 (HIV-1MDR/MM (R5)) [nM] | IC50 (HIV-1MDR/G (X4)) [nM] | IC50 (HIV-1MDR/C (X4)) [nM] | IC50 (HIV-1MDR/B (X4)) [nM] | IC50 (HIV-1MDR/TM (X4)) [nM] | IC50 (92UG037 (A-R5)) [nM] | Selectivity Index (HIV-1LAI; MT-2 cells) | IC50 (HIV-1LAI; [6]) [nM] | fold change of IC50, HIV-1MDR/JSL (HIV-1MDR/JSL (R5)) | fold change of IC50, HIV-1MDR/MM (HIV-1MDR/MM (R5)) | fold change of IC50, HIV-1MDR/G (HIV-1MDR/G (X4)) | fold change of IC50, HIV-1MDR/C (HIV-1MDR/C (X4)) | fold change of IC50, HIV-1MDR/B (HIV-1MDR/B (X4)) | fold change of IC50, HIV-1MDR/TM (HIV-1MDR/TM (X4)) | IC50 [2] [nM] | also measured
1 | CC(C)CN(C[C@@H](O)[C@H](Cc1ccccc1)NC(=O)O[C@H]1CCOC1)S(=O)(=O)c1ccc(N)cc1 [APV, Amprenavir] | 29 ± 5 | 25 ± 6 | 36 ± 2 | 430 ± 50 | 480 ± 90 | 320 ± 20 | 250 ± 50 | 360 ± 90 | 300 ± 40 |  |  |  |  |  |  |  |  |  |  | 
2 | COC(=O)N[C@H](C(=O)N[C@@H](Cc1ccccc1)[C@@H](O)CN(Cc1ccc(-c2ccccn2)cc1)NC(=O)[C@@H](NC(=O)OC)C(C)(C)C)C(C)(C)C [ATV, Atazanavir] |  | 1.3 ± 0.4 |  | 540 ± 200 | 45 ± 0.1 | 32 ± 2 | 21 ± 6 | 250 ± 3 | 38 ± 9 | 2.5 ± 0.2 | 5750 | 4.8 ± 0.1 | 142 | 12 | 8 | 6 | 66 | 10 |  | IC50 [1, 5]: 3.8 ± 0.4 nM
3 | CC(C)CN(CC(O)C(Cc1ccccc1)NC(=O)OC1COC2OCCC12)S(=O)(=O)c1ccc2c(c1)OCO2 (centres unmarked) [GRL-98065] |  | 0.2 ± 0.1 |  | 6 | 3.8 ± 0.6 | 3.4 ± 0.3 | 2.7 ± 0.3 | 3.9 ± 0.5 | 3.2 ± 0.6 | 0.4 ± 0.1 | 71,400 | ~0.5 | 12 | 8 | 7 | 5 | 8 | 6 | ≤ 6 | IC50 (HIV-1LAI; read-out: MTT assay (IC50, nM), Human CD4+ MT-2 cells, 100 TCID50 of HIV-1LAI, day 7): 0.4 nM
4 | CC(C)(C)NC(=O)[C@@H]1CN(Cc2cccnc2)CCN1C[C@@H](O)C[C@@H](Cc1ccccc1)C(=O)N[C@H]1c2ccccc2C[C@H]1O [IDV, indinavir] | 24 ± 8 | 22 ± 5 | 48 ± 7 | > 1000 | > 1000 | 640 ± 110 | > 1000 | > 1000 | > 1000 |  |  |  |  |  |  |  |  |  | > 1000 | 
5 | Cc1cccc(C)c1OCC(=O)N[C@@H](Cc1ccccc1)[C@@H](O)C[C@H](Cc1ccccc1)NC(=O)[C@H](C(C)C)N1CCCNC1=O [LPV, lopinavir] | 7 ± 1 | 5.3 ± 0.4 | 7 ± 1 |  |  |  |  |  |  |  |  |  |  |  |  |  |  |  |  | 
6 | Cc1c(O)cccc1C(=O)N[C@@H](CSc1ccccc1)[C@H](O)CN1C[C@H]2CCCC[C@H]2C[C@H]1C(=O)NC(C)(C)C [NFV, Nelfinavir] |  | 18 ± 4 | 32 ± 4 |  |  |  |  |  |  | 56 ± 14 |  |  |  |  |  |  |  |  | > 1000 | 
7 | CC(C)c1nc(CN(C)C(=O)N[C@H](C(=O)N[C@@H](Cc2ccccc2)C[C@H](O)[C@H](Cc2ccccc2)NC(=O)OCc2cncs2)C(C)C)cs1 [RTV, ritonavir] |  | 23 ± 6 | 54 ± 1 |  |  |  |  |  |  | 41 ± 8 |  |  |  |  |  |  |  |  | > 1000 | 
8 | CC(C)(C)NC(=O)[C@@H]1C[C@@H]2CCCC[C@@H]2CN1C[C@@H](O)[C@H](Cc1ccccc1)NC(=O)[C@H](CC(N)=O)NC(=O)c1ccc2ccccc2n1 [SQV, Saquinavir] |  |  |  | 290 ± 50 | 140 ± 40 | 33 ± 5 | 35 ± 4 | 270 ± 60 | 180 ± 50 | 3.2 ± 0.3 | 2050 | 8 ± 1 | 36 | 18 | 4 | 4 | 34 | 23 | 140 to 290 | IC50 [1, 5]: 8 ± 3 nM; IC50 (Ba-L (B-R5)): 8.3 ± 0.5 nM
